A melting point of over 250 °C was found for COc1ccc(-c2nc(N3CCN(C)CC3)c3c(C)c(C#N)sc3n2)cc1 [Example 9, 2-(4-Methoxyphenyl)-5-methyl-4-(4-methylpiperazin-1-yl)thieno[2,3-d]pyrimidine-6-carbonitrile] in this work. A melting point of 162 to 164 °C was found for CCN(C)c1nc(-c2ccncc2)nc2sc(C#N)c(C)c12 [Example 38, 4-[Ethyl(methyl)amino]-5-methyl-2-pyridin-4-ylthieno[2,3-d]pyrimidine-6-carbonitrile] in this work. A melting point of 164 to 166 °C was found for COc1cc(-c2nc(N(C)CCO)c3c(C)c(C#N)sc3n2)cc(OC)c1OC [Example 52, 4-[(2-Hydroxy-ethyl)-methyl-amino]-5-methyl-2-(3,4,5-trimethoxy-phenyl)-thieno[2,3-d]pyrimidine-6-carbonitrile] in this work. A melting point of 194 to 195 °C was found for CNc1nc(Cc2cc(OC)c(OC)c(OC)c2)nc2sc(C#N)c(C)c12 [Example 110, 5-Methyl-4-(methylamino)-2-(3,4,5-trimethoxybenzyl)thieno[2,3-d]pyrimidine-6-carbonitrile] in this work. A melting point of 88 to 90 °C was found for Cc1c(C#N)sc2nc(Cc3ccccc3)nc(N3CCOCC3)c12 [Example 58, 2-Benzyl-5-methyl-4-morpholin-4-yl-thieno[2,3-d]pyrimidine-6-carbonitrile] in this work. A melting point of 238 to 240 °C was found for COc1cc(-c2nc(-n3ccnc3)c3c(C)c(C#N)sc3n2)cc(OC)c1OC [Example 89, 4-(1H-Imidazol-1-yl)-5-methyl-2-(3,4,5-trimethoxyphenyl)thieno[2,3-d]pyrimidine-6-carbonitrile] in this work. A melting point of 207 to 208 °C was found for CCNc1nc(-c2cc(OC)cc(OC)c2)nc2sc(C#N)c(C)c12 [Example 134] in this work. A melting point of 195 to 197 °C was found for COc1cc(-c2nc(NC(C)(C)C)c3c(C)c(C#N)sc3n2)cc(OC)c1OC [Example 74, 4-(tert-Butylamino)-5-methyl-2-(3,4,5-trimethoxyphenyl)thieno[2,3-d]pyrimidine-6-carbonitrile] in this work. A melting point of 179 to 181 °C was found for CCCNc1nc(-c2ccc(OC)c(OC)c2)nc2sc(C#N)c(C)c12 [Example 47, 2-(3,4-Dimethoxyphenyl)-5-methyl-4-(propylamino)thieno[2,3-d]pyrimidine-6-carbonitrile] in this work. A melting point of 154 to 156 °C was found for CCN(CC)c1nc(-c2ccc(OC)cc2)nc2sc(C#N)c(C)c12 [Example 10, 4-(Diethylamino)-2-(4-methoxyphenyl)-5-methylthieno[2,3-d]pyrimidine-6-carbonitrile] in this work. A melting point of 197 to 198 °C was found for Cc1c(C#N)sc2nc(-c3ccc4c(c3)OCO4)nc(N3CCOCC3)c12 [Example 37, 2-(1,3-Benzodioxol-5-yl)-5-methyl-4-morpholin-4-ylthieno[2,3-d]pyrimidine-6-carbonitrile] in this work. A melting point of 123 to 125 °C was found for COc1ccc(-c2nc(N(C)C)c3c(C)c(C#N)sc3n2)cc1 [Example 21, 4-(Dimethylamino)-2-(4-methoxyphenyl)-5-methylthieno[2,3-d]pyrimidine-6-carbonitrile] in this work. A melting point of 145 to 148 °C was found for CCN(C)c1nc(-c2cc(OC)cc(OC)c2)nc2sc(C#N)c(C)c12 [Example 55, 2-(3,5-Dimethoxy-phenyl)-4-(ethyl-methyl-amino)-5-methyl-thieno[2,3-d]pyrimidine-6-carbonitrile] in this work. A melting point of 209 to 210 °C was found for Cc1c(C#N)sc2nc(-c3ccc(Cl)cc3)nc(N3CCN(C)CC3)c12 [Example 15, 2-(4-Chlorophenyl)-5-methyl-4-(4-methylpiperazin-1-yl)thieno[2,3-d]pyrimidine-6-carbonitrile] in this work. A melting point of 205 to 207 °C was found for Cc1c(C#N)sc2nc(-c3ccc(Cl)cc3)nc(N3CCOCC3)c12 [Example 23, 2-(4-Chlorophenyl)-5-methyl-4-morpholin-4-ylthieno[2,3-d]pyrimidine-6-carbonitrile] in this work. A melting point of 251 to 253 °C was found for Cc1c(C#N)sc2nc(-c3ccccc3)nc(N3CCNCC3)c12 [Example 8, 5-Methyl-2-phenyl-4-piperazin-1-ylthieno[2,3-d]pyrimidine-6-carbonitrile] in this work. A melting point of 127 to 129 °C was found for CCC(CC)Nc1nc(Cc2cc(OC)c(OC)c(OC)c2)nc2sc(C#N)c(C)c12 [Example 115, 4-[(1-Ethylpropyl)amino]-5-methyl-2-(3,4,5-trimethoxybenzyl)thieno[2,3-d]pyrimidine-6-carbonitrile] in this work. A melting point of 178 to 179 °C was found for CCN1CCN(c2nc(-c3ccccc3)nc3sc(C#N)c(C)c23)CC1 [Example 1, 4-(4-Ethylpiperazin-1-yl)-5-methyl-2-phenylthieno[2,3-d]pyrimidine-6-carbonitrile] in this work. A melting point of 125 to 128 °C was found for CCN(C)c1nc(-c2ccc(C(=O)OC)cc2)nc2sc(C#N)c(C)c12 [Example 57] in this work. A melting point of 125 to 127 °C was found for COc1cc(-c2nc(N(C)CCN(C)C)c3c(C)c(C#N)sc3n2)cc(OC)c1OC [Example 107, 4-[[2-(Dimethylamino)ethyl](methyl)amino]-5-methyl-2-(3,4,5-trimethoxyphenyl) thieno[2,3-d]pyrimidine-6-carbonitrile] in this work. A melting point of 207 to 209 °C was found for Cc1ccc(-c2nc(N3CCN(C)CC3)c3c(C)c(C#N)sc3n2)cc1 [Example 27, 5-Methyl-2-(4-methylphenyl)-4-(4-methylpiperazin-1-yl)thieno[2,3-d]pyrimidine-6-carbonitrile] in this work. A melting point of 202 to 204 °C was found for COc1ccc(-c2nc(N3CCCCC3)c3c(C)c(C#N)sc3n2)cc1 [Example 6, 2-(4-Methoxyphenyl)-5-methyl-4-piperidin-1-ylthieno[2,3-d]pyrimidine-6-carbonitrile] in this work. A melting point of 144 to 146 °C was found for COc1ccc(-c2nc(N(C)CCO)c3c(C)c(C#N)sc3n2)cc1 [Example 25, 4-[(2-Hydroxyethyl)(methyl)amino]-2-(4-methoxyphenyl)-5-methylthieno[2,3-d]pyrimidine-6-carbonitrile] in this work. A melting point of 182 to 184 °C was found for COc1cc(-c2nc(NCC(C)C)c3c(C)c(C#N)sc3n2)cc(OC)c1OC [Example 72, 4-(Isobutylamino)-5-methyl-2-(3,4,5-trimethoxyphenyl)thieno[2,3-d]pyrimidine-6-carbonitrile] in this work. A melting point of 62 to 63 °C was found for COc1ccc(Cc2nc(N(C)CCO)c3c(C)c(C#N)sc3n2)cc1OC [Example 105, 2-(3,4-Dimethoxybenzyl)-4-[(2-hydroxyethyl)(methyl)amino]-5-methylthieno[2,3-d]pyrimidine-6-carbonitrile] in this work. A melting point of 195 to 197 °C was found for Cc1c(C#N)sc2nc(-c3ccc4c(c3)OCO4)nc(N(C)CCO)c12 [Example 43, 2-(1,3-Benzodioxol-5-yl)-4-[(2-hydroxyethyl)(methyl)amino]-5-methylthieno[2,3-d]pyrimidine-6-carbonitrile] in this work. A melting point of 187 to 189 °C was found for Cc1c(C#N)sc2nc(-c3ccc(C(F)(F)F)cc3)nc(N3CCN(C)CC3)c12 [Example 33, 5-Methyl-4-(4-methylpiperazin-1-yl)-2-[4-(trifluoromethyl)phenyl]thieno[2,3-d]pyrimidine-6-carbonitrile] in this work. A melting point of 162 to 164 °C was found for C=CCN(C)c1nc(-c2cc(OC)c(OC)c(OC)c2)nc2sc(C#N)c(C)c12 [Example 78, 4-[Allyl(methyl)amino]-5-methyl-2-(3,4,5-trimethoxyphenyl)thieno[2,3-d]pyrimidine-6-carbonitrile] in this work. A melting point of over 290 °C was found for COc1cc(-c2nc(N(C)CCN)c3c(C)c(C#N)sc3n2)cc(OC)c1OC [Example 86, 4-[(2-Aminoethyl)(methyl)amino]-5-methyl-2-(3,4,5-trimethoxyphenyl)thieno[2,3-d]pyrimidine-6-carbonitrile] in this work. A melting point of 164 to 165 °C was found for CCNc1nc(Cc2cc(OC)c(OC)c(OC)c2)nc2sc(C#N)c(C)c12 [Example 111, 4-(Ethylamino)-5-methyl-2-(3,4,5-trimethoxybenzyl)thieno[2,3-d]pyrimidine-6-carbonitrile] in this work. A melting point of over 250 °C was found for Cc1c(C#N)sc2nc(-c3ccncc3)nc(N3CCOCC3)c12 [Example 41, 5-Methyl-4-morpholin-4-yl-2-pyridin-4-ylthieno[2,3-d]pyrimidine-6-carbonitrile] in this work. A melting point of 163 to 164 °C was found for CCN(C)c1nc(-c2cc(OC)c(OC)c(OC)c2)nc2sc(C#N)c(C)c12 [Example 39, 4-[Ethyl(methyl)amino]-5-methyl-2-(3,4,5-trimethoxyphenyl)thieno[2,3-d]pyrimidine-6-carbonitrile] in this work. A melting point of 122 to 123 °C was found for CCN(C)c1nc(-c2ccc(OC)cc2)nc2sc(C#N)c(C)c12 [Example 17, 4-[Ethyl(methyl)amino]-2-(4-methoxyphenyl)-5-methylthieno[2,3-d]pyrimidine-6-carbonitrile] in this work. A melting point of 96 to 98 °C was found for CCCCN(CCCC)c1nc(-c2ccc(OC)cc2)nc2sc(C#N)c(C)c12 [Example 14, 4-(Dibutylamino)-2-(4-methoxyphenyl)-5-methylthieno[2,3-d]pyrimidine-6-carbonitrile] in this work. A melting point of 208 to 210 °C was found for COc1cc(-c2nc(-n3nccn3)c3c(C)c(C#N)sc3n2)cc(OC)c1OC [Example 90, 5-Methyl-4-(2H-1,2,3-triazol-2-yl)-2-(3,4,5-trimethoxyphenyl)thieno[2,3-d]pyrimidine-6-carbonitrile] in this work. A melting point of 94 to 97 °C was found for COCCNc1nc(Cc2ccc(OC)c(OC)c2)nc2sc(C#N)c(C)c12 [Example 106, 2-(3,4-Dimethoxybenzyl)-4-[(2-methoxyethyl)amino]-5-methylthieno[2,3-d]pyrimidine-6-carbonitrile] in this work. A melting point of 169 to 171 °C was found for CCN(CC)c1nc(-c2ccncc2)nc2sc(C#N)c(C)c12 [Example 45, 4-(Diethylamino)-5-methyl-2-pyridin-4-ylthieno[2,3-d]pyrimidine-6-carbonitrile] in this work. A melting point of 204 to 206 °C was found for COc1ccc(-c2nc(N3CCOCC3)c3c(C)c(C#N)sc3n2)cc1 [Example 22, 2-(4-Methoxyphenyl)-5-methyl-4-morpholin-4-ylthieno[2,3-d]pyrimidine-6-carbonitrile] in this work. A melting point of 107 to 109 °C was found for CCN(CC)c1nc(Cc2ccc(OC)c(OC)c2)nc2sc(C#N)c(C)c12 [Example 101, 4-(Diethylamino)-2-(3,4-dimethoxybenzyl)-5-methylthieno[2,3-d]pyrimidine-6-carbonitrile] in this work.

From patent publication US7662814B2, “4-aminothieno[2,3-d]pyrimidine-6-carbonitrile derivatives as PDE7 inhibitors” (Laboratorios Almirall, S.A., priority 2003, dated 2010)
